Laboratory results published in ChEMBL document CHEMBL4507276 (2021).

Columns and labels:
[1] = target: Oxysterols receptor LXR-beta (Homo sapiens) (UniProt P55055); test: LXR_BETAH_AGON Cerep selectivity data (BI); settings: filed as agonist, Compound concentration 20.0 uM
[2] = target: Glutamate NMDA receptor (Rattus norvegicus) (UniProt P35439+Q00959+Q00960+Q00961+Q62645+Q8VHN2+Q9R1M7); test: NMDAAGSI/RA Eurofins-Panlabs selectivity data (BI); assay type: protein-complex assay; settings: filed as agonist, Compound concentration 10.0 uM
[3] = target: Androgen receptor (Rattus norvegicus) (UniProt P15207); test: TESTOST/RA Eurofins-Panlabs selectivity data (BI); settings: Compound concentration 10.0 uM
Chain of Androgen receptor (Rattus norvegicus) (P15207 whole entry S389L): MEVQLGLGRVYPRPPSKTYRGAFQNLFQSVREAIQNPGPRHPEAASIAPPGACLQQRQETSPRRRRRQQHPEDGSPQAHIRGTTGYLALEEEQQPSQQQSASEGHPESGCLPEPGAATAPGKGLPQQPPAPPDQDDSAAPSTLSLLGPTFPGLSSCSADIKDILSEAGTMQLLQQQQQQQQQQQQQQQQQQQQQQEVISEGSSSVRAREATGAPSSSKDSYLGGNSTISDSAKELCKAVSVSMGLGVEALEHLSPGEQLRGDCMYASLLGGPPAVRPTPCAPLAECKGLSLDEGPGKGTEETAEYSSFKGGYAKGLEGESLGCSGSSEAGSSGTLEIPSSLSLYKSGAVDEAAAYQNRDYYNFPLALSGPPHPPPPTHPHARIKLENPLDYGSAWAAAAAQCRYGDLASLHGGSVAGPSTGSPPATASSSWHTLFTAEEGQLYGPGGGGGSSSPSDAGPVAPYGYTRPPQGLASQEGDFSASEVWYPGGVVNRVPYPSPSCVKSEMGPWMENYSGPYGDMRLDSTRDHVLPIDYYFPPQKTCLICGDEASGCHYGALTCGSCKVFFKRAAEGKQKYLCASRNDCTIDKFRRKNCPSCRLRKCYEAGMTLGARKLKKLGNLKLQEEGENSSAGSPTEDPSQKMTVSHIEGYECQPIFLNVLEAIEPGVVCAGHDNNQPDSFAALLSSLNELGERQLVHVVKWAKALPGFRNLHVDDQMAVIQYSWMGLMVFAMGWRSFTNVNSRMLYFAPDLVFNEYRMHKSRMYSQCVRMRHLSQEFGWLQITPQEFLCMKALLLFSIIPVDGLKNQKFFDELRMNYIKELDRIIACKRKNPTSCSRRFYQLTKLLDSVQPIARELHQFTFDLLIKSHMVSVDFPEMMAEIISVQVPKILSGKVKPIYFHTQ

[4] = target: Neuropeptide Y receptor type 2 (Homo sapiens) (UniProt P49146); test: Y2/HU Eurofins-Panlabs selectivity data (BI); settings: Compound concentration 10.0 uM
Chain of Neuropeptide Y receptor type 2 (Homo sapiens) (P49146 whole entry): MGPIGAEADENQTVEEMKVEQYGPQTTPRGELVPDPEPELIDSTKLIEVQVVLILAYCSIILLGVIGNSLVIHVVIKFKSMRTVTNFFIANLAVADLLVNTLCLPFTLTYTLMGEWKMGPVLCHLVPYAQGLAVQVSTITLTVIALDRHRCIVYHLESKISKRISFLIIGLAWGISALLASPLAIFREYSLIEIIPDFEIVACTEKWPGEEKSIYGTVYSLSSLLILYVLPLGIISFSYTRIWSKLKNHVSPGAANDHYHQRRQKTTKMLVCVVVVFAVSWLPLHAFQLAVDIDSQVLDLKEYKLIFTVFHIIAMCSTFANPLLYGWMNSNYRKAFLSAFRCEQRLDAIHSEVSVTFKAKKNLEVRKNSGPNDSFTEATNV

[5] = target: Cyclin-dependent kinase 5/CDK5 activator 1 (Homo sapiens) (UniProt Q00535+Q15078); test: CDK5/P25 Invitrogen selectivity data (BI); assay type: protein-complex assay; settings: Compound concentration 3.0 uM
Chain of Cyclin-dependent kinase 5/CDK5 activator 1 (Homo sapiens) (Q00535 whole entry, canonical isoform): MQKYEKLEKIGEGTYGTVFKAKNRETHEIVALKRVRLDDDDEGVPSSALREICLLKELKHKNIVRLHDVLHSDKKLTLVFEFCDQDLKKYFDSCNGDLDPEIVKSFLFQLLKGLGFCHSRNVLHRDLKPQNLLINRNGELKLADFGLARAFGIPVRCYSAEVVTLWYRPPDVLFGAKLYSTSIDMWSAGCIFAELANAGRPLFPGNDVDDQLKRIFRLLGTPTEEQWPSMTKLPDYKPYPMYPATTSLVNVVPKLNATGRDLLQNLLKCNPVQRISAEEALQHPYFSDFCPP
Chain of Cyclin-dependent kinase 5/CDK5 activator 1 (Homo sapiens) (Q15078 99-307 partner limits assumed): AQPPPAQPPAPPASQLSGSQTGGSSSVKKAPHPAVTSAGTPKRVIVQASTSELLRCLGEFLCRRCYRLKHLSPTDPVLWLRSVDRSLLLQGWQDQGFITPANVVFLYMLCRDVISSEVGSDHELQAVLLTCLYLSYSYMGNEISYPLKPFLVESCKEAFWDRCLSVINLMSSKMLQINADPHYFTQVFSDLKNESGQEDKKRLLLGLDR

[6] = target: Casein kinase I isoform alpha (Homo sapiens) (UniProt P48729); test: CSNK1A1 Invitrogen selectivity data (BI); settings: Compound concentration 3.0 uM
Chain of Casein kinase I isoform alpha (Homo sapiens) (P48729 2-337 limits assumed): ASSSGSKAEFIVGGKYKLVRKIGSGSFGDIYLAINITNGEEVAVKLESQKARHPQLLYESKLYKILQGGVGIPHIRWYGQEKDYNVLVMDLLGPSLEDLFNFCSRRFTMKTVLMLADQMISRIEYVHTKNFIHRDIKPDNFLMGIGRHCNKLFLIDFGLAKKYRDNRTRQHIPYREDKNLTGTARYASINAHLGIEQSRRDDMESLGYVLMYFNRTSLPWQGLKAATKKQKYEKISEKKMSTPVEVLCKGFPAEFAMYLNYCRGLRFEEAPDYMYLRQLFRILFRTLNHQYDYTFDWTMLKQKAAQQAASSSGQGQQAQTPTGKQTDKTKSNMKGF

[7] = target: T1, Muscle, skeletal receptor tyrosine-protein kinase (Homo sapiens) (UniProt O15146); test: MUSK Invitrogen selectivity data (BI); settings: Compound concentration 3.0 uM
T1 sequence (whole entry): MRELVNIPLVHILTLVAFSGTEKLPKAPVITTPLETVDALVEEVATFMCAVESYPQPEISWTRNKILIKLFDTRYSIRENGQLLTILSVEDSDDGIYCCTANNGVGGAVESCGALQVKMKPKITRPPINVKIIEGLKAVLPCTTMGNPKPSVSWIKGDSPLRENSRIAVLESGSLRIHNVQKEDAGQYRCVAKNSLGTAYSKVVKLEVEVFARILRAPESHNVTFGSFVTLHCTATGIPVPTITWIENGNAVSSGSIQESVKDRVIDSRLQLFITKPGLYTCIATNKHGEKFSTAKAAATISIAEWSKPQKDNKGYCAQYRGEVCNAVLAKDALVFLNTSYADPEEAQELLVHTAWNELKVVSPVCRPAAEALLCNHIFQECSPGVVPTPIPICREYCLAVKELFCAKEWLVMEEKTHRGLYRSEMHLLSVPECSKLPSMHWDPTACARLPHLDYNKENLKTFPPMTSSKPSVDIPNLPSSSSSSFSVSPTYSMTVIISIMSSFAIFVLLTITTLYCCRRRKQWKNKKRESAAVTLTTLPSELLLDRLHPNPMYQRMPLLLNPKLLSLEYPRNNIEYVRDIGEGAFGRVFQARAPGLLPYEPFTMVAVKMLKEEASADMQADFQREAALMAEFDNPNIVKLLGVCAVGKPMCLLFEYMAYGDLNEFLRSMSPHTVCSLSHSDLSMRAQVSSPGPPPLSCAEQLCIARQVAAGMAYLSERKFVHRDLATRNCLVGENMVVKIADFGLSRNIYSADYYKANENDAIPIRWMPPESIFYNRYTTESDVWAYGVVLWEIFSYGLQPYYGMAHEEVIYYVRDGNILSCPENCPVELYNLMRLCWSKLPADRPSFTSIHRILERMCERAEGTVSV

[8] = target: PAS domain-containing serine/threonine-protein kinase (Homo sapiens) (UniProt Q96RG2); test: PASK Invitrogen selectivity data (BI); settings: Compound concentration 3.0 uM
Chain of PAS domain-containing serine/threonine-protein kinase (Homo sapiens) (Q96RG2 whole entry, the tested form may be a part): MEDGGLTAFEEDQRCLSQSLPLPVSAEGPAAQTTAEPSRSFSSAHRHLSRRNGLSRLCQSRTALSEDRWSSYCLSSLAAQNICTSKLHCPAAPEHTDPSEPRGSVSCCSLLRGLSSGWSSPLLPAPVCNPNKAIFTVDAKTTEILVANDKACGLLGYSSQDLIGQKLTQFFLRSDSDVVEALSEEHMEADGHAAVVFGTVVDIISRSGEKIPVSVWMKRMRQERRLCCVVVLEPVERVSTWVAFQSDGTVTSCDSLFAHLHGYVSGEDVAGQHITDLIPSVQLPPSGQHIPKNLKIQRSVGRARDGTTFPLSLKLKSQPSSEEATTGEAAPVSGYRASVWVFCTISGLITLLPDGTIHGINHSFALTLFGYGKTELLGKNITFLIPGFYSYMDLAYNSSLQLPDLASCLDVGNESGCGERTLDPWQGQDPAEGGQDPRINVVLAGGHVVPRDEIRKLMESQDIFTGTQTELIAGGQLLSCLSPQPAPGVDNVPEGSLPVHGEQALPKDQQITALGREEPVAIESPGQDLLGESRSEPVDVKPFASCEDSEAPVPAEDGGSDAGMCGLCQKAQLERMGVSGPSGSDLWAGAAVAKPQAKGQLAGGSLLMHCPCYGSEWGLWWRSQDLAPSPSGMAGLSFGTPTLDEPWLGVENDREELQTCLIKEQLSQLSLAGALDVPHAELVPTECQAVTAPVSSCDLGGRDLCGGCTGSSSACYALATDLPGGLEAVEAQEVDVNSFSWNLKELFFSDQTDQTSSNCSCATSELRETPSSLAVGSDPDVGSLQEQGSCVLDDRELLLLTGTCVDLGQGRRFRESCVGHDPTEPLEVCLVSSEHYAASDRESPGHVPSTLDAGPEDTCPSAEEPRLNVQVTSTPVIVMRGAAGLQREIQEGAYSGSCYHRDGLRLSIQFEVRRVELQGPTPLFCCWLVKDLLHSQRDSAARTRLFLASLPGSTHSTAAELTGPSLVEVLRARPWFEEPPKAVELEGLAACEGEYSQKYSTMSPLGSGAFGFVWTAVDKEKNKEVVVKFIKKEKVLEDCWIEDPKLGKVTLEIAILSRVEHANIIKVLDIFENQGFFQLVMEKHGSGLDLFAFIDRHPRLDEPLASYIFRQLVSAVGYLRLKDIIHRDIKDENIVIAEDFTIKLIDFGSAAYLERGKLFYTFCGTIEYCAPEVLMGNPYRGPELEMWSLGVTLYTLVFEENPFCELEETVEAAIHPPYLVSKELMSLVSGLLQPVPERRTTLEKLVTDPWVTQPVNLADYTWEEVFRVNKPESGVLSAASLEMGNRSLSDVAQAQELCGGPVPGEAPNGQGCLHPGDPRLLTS

[9] = target: T2, cGMP-dependent protein kinase 2 (Homo sapiens) (UniProt Q13237); test: PRKG2 Invitrogen selectivity data (BI); settings: Compound concentration 3.0 uM
T2 sequence (whole entry): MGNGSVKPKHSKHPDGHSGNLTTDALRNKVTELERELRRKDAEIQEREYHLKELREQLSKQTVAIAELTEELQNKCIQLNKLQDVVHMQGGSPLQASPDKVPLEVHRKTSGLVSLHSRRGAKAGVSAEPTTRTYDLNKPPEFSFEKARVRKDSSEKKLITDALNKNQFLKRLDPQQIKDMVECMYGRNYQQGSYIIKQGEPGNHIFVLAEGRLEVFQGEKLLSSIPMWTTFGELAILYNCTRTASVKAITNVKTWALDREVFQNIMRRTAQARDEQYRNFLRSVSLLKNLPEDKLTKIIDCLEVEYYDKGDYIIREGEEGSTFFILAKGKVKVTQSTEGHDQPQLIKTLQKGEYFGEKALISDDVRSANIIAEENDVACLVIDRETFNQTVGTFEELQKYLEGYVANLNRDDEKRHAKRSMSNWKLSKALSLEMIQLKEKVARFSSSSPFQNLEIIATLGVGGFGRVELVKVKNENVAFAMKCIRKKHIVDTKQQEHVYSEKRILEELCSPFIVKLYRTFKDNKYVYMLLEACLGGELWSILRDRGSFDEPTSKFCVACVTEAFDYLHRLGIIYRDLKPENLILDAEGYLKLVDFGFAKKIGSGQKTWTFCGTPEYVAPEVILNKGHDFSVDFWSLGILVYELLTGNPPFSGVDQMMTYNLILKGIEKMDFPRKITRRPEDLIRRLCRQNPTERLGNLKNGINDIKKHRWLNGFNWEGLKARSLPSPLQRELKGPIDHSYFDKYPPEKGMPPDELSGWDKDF

[10] = target: Protein-tyrosine kinase 6 (Homo sapiens) (UniProt Q13882); test: PTK6 Invitrogen selectivity data (BI); settings: Compound concentration 3.0 uM
Chain of Protein-tyrosine kinase 6 (Homo sapiens) (Q13882 whole entry, looked up): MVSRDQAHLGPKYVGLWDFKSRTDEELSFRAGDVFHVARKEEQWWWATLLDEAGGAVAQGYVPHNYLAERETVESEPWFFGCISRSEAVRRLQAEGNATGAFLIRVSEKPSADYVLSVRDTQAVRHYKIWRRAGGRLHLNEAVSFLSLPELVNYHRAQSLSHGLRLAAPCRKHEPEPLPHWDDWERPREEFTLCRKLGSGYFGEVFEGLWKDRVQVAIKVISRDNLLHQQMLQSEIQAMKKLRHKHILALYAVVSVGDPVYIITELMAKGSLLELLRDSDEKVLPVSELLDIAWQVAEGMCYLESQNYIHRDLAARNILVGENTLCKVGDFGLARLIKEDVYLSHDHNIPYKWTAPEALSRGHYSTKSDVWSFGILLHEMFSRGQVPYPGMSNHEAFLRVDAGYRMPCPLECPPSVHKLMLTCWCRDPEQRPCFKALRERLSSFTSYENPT

Measured: residual activity

Chain of Oxysterols receptor LXR-beta (Homo sapiens) (P55055 whole entry): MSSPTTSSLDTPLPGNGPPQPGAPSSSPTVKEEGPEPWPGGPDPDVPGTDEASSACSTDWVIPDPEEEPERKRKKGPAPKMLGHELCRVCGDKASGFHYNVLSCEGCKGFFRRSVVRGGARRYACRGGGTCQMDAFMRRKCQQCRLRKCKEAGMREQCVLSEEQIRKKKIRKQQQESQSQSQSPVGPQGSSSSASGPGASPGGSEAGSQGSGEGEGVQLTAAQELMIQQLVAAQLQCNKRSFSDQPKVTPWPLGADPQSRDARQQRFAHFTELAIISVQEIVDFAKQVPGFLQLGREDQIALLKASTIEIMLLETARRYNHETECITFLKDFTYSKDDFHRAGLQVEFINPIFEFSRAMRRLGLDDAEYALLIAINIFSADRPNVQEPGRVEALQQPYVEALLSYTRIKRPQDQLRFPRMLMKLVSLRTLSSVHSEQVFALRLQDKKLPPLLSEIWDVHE

CN(C)C(=O)Cn1cc(-c2nc([C@@](C)(c3ccc(-c4cnc(N)nc4)cc3)C3CC3)no2)cn1 [BI 665915]
inactive: [1] 118% | [2] 102% | [3] 99% | [4] 97% | [5] 100% | [6] 96% | [7] 97.5% | [8] 100% | [9] 92.5% | [10] 99.5%
